Consider 6 compounds from ChEMBL document CHEMBL1152592, “Design, synthesis and biological evaluations of novel 7-[3-(1-aminocycloalkyl)pyrrolidin-1-yl]-6-desfluoro-8-methoxyquinolones with potent antibacterial activity against multi-drug resistant Gram-positive bacteria” (Bioorg Med Chem, 2009).

Data set [1] has as its system Staphylococcus epidermidis. In words: Antibacterial activity against Staphylococcus epidermidis 56500 after 18 hrs by twofold microbroth dilution method. In kind it is functional. The following applies: Staphylococcus epidermidis, 56500, 18 h.
For data set [2], the system named is Staphylococcus aureus. In words: Antibacterial activity against ciprofloxacin, methicillin-resistant Staphylococcus aureus after 18 hrs by twofold microbroth dilution method. The data set is classed as functional.
The test system of data set [3] is Enterococcus faecalis. Nature of the data set: Antibacterial activity against vancomycin-resistant Enterococcus faecalis after 18 hrs by twofold microbroth dilution method. In kind it is functional.
Data set [4] has as its system Enterococcus faecium. Nature of the data set: Antibacterial activity against vancomycin-resistant Enterococcus faecium after 18 hrs by twofold microbroth dilution method. The data set is classed as functional. (Broth dilution looks for growth in wells or tubes with falling amounts of substance.)
For data set [5], the system named is Streptococcus pneumoniae. Nature of the data set: Antibacterial activity against Streptococcus pneumoniae J-24 after 18 hrs by twofold microbroth dilution method. In kind it is functional. To be noted: J-24, 18 h.
Data set [6] relates to Streptococcus pyogenes. Nature of the data set: Antibacterial activity against Streptococcus pyogenes G-36 after 18 hrs by twofold microbroth dilution method. In kind it is functional. To be noted: G-36, 18 h.
Data set [7] deals with Streptococcus mitis. Nature of the data set: Antibacterial activity against Streptococcus mitis IID685 after 18 hrs by twofold microbroth dilution method. In kind it is functional. The following applies: IID685, 18 h.
Data set [8] concerns Pseudomonas aeruginosa. In words: Antibacterial activity against Pseudomonas aeruginosa PAO1 after 18 hrs by twofold microbroth dilution method. In kind it is functional. To be noted: PAO1, 18 h.
Data set [9] deals with Staphylococcus aureus. In words: Antibacterial activity against levofloxacin, methicillin-resistant Staphylococcus aureus after 18 hrs by twofold microbroth dilution method. In kind it is functional.
In data set [10] the test system is Escherichia coli. In words: Antibacterial activity against Escherichia coli NIHJ after 18 hrs by twofold microbroth dilution method. The data set is classed as functional.
Data set [11] relates to Enterococcus faecalis. Nature of the data set: Antibacterial activity against Enterococcus faecalis ATCC 19433 after 18 hrs by twofold microbroth dilution method. The data set is classed as functional. The following applies: ATCC19433, 18 h.
Data set [12] is described as follows: Inhibition of Staphylococcus aureus wild type DNA topoisomerase 4.
Data set [13] has as its system Staphylococcus aureus. In words: Antibacterial activity against Staphylococcus aureus FDA 209-P after 18 hrs by twofold microbroth dilution method. In kind it is functional.
For data set [14], the system named is Klebsiella pneumoniae. In words: Antibacterial activity against Klebsiella pneumoniae type 2 after 18 hrs by twofold microbroth dilution method. In kind it is functional. To be noted: type 2, 18 h.
Data set [15] is described as follows: Inhibition of Staphylococcus aureus DNA topoisomerase 4 Ser80Phe mutant.
Data set [16] relates to Mus musculus. Nature of the data set: Toxicity in Slc:ddY mouse at 150 mg/kg, iv. In kind it is organism-based. Further details: dose 150 mg/kg, route intravenous. To be noted: in vivo.
Data set [17] has as its system Mus musculus. In words: Toxicity in Slc:ddY mouse at 50 mg/kg, iv. The data set is classed as organism-based. Further details: dose 50 mg/kg, route intravenous. The following applies: in vivo.
Data set [18] relates to Mus musculus. Nature of the data set: Toxicity in Slc:ddY mouse at 100 mg/kg, iv. Further details: dose 100 mg/kg, route intravenous. The following applies: in vivo. In kind it is organism-based.
Data set [19] is described as follows: Aqueous […] of the compound. The following applies: aqueous (not further specified). The data set is classed as physicochemical.
In data set [20] the test system is Streptococcus pneumoniae. In words: Antibacterial activity against penicillin-intermediate resistant Streptococcus pneumoniae after 18 hrs by twofold microbroth dilution method. The data set is classed as functional.

Structures are written as SMILES. ≈ marks a conversion by molar mass, not a printed value. A value given as a limit tells only on which side of the number the result lay.

Broadly, the MIC is the lowest concentration found to suppress growth. In general, MIC50 refers to an inhibitory concentration at the 50% level, which refers to growth in some studies and to a panel of isolates in others. The low end stands for higher susceptibility, the high end for lower susceptibility. Usually MIC90 stands for an inhibitory concentration at the 90% level, which refers to growth in some studies and to a panel of isolates in others. Lower therefore signals greater potency. Usually MIC80 stands for the lowest concentration that inhibits either 80% of growth or 80% of the strains tested, depending on the study. Lower therefore signals higher susceptibility. One may read the IC50 as the concentration at which inhibition is half-maximal. Read a high IC50 as lower potency. As to `COc1c(N2C[C@@H]3CCCN[C@@H]3C2)c(F)cc2c(=O)c(C(=O)O)cn(C3CC3)c12` [MOXIFLOXACIN], the MIC in [1] turned out to be 0.1 µg/mL (≈ 0.249 µM); in [5] it was 0.025 µg/mL (≈ 0.0623 µM); in [6], 0.2 µg/mL (≈ 0.498 µM); in data set [7], 0.1 µg/mL (≈ 0.249 µM); in data set [8], 0.78 µg/mL (≈ 1.94 µM); in data set [10] it was 0.006 µg/mL (≈ 0.0149 µM). In addition, the MIC in data set [11] amounted to 0.2 µg/mL (≈ 0.498 µM); in data set [13], 0.013 µg/mL (≈ 0.0324 µM); in data set [14], 0.05 µg/mL (≈ 0.125 µM). For the same compound, the MIC50 in [2] is 2 µg/mL (≈ 4.98 µM); in [3], 16 µg/mL (≈ 39.9 µM); in [4], 4 µg/mL (≈ 9.96 µM); in [9], 4 µg/mL (≈ 9.96 µM). Further, the MIC90 in [2], in data set [3], in [4] and in [9] was 32 µg/mL (≈ 79.7 µM) throughout. In data set [9], the MIC80 is 32 µg/mL (≈ 79.7 µM). Moreover, the IC50 in data set [12] came to 1.36 µg/mL (≈ 3.39 µM); in data set [15] it was 24.2 µg/mL (≈ 60.3 µM).
Turning to `N[C@@H]1[C@H]2CN(c3nc4c(cc3F)c(=O)c(C(=O)O)cn4-c3ccc(F)cc3F)C[C@@H]12` [TROVAFLOXACIN], the minimum inhibitory concentration (MIC) was 0.05 µg/mL (≈ 0.12 µM) in data set [1]; 0.05 µg/mL (≈ 0.12 µM) in data set [5]; 0.2 µg/mL (≈ 0.48 µM) in [6]; 0.1 µg/mL (≈ 0.24 µM) in data set [7]; 0.2 µg/mL (≈ 0.48 µM) in data set [8]; at most 0.003 µg/mL in [10]. The MIC came to 0.2 µg/mL (≈ 0.48 µM) in data set [11], 0.013 µg/mL (≈ 0.0312 µM) in data set [13] and 0.025 µg/mL (≈ 0.06 µM) in data set [14].
By solubility is commonly meant the concentration that dissolves in the medium under given conditions. A higher solubility goes with much dissolved substance. `CNC1([C@@H]2CCN(c3c(F)cc4c(=O)c(C(=O)O)cn([C@@H]5C[C@@H]5F)c4c3OC)C2)CC1`: the MIC in data set [1] is 0.006 µg/mL (≈ 0.0138 µM); in [5], at most 0.003 µg/mL; in data set [6], 0.003 µg/mL (≈ 0.00692 µM); in [7], 0.003 µg/mL (≈ 0.00692 µM); in data set [8], 0.2 µg/mL (≈ 0.461 µM); in data set [10] it was at most 0.003 µg/mL. Also, the minimal inhibitory concentration (MIC) was 0.025 µg/mL (≈ 0.0577 µM) in [11], at most 0.003 µg/mL in [13] and 0.012 µg/mL (≈ 0.0277 µM) in data set [14]. In addition, the Activity entry in data set [16], in data set [17] and in data set [18] was “Toxic” each time. Besides, the concentration in solution in [19] (solubility) was 173 µg/mL (≈ 399 µM).
As for `CN[C@H](CC(C)C)C(=O)N[C@H]1C(=O)N[C@@H](CC(N)=O)C(=O)N[C@H]2C(=O)N[C@H]3C(=O)N[C@H](C(=O)N[C@H](C(=O)O)c4cc(O)cc(O)c4-c4cc3ccc4O)[C@H](O)c3ccc(c(Cl)c3)Oc3cc2cc(c3O[C@@H]2O[C@H](CO)[C@@H](O)[C@H](O)[C@H]2O[C@H]2C[C@](C)(N)[C@H](O)[C@H](C)O2)Oc2ccc(cc2Cl)[C@H]1O` [VANCOMYCIN], the MIC50 in data set [2] was 1 µg/mL (≈ 0.69 µM); in data set [3], over 128 µg/mL; in [4], over 128 µg/mL; in [20] it was 0.5 µg/mL (≈ 0.345 µM); in data set [9] it was 1 µg/mL (≈ 0.69 µM). Further, the MIC90 was 2 µg/mL (≈ 1.38 µM) in [2]; over 128 µg/mL in data set [3]; over 128 µg/mL in data set [4]; 0.5 µg/mL (≈ 0.345 µM) in data set [20]; 1 µg/mL (≈ 0.69 µM) in data set [9]. Also, in data set [9], the MIC80 is 1 µg/mL (≈ 0.69 µM).
On to `CC(=O)NC[C@H]1CN(c2ccc(N3CCOCC3)c(F)c2)C(=O)O1` [LINEZOLID], for which the MIC50 was 1 µg/mL (≈ 2.96 µM) in [2], 2 µg/mL (≈ 5.93 µM) in [3], 2 µg/mL (≈ 5.93 µM) in [4] and 1 µg/mL (≈ 2.96 µM) in data set [20]. Further, the MIC90 in data set [2] amounted to 1 µg/mL (≈ 2.96 µM); in data set [3], 2 µg/mL (≈ 5.93 µM); in data set [4] it was 2 µg/mL (≈ 5.93 µM); in data set [20] it was 2 µg/mL (≈ 5.93 µM).
With `COc1c(N2CC[C@@H](C3(N)CCC3)C2)c(F)cc2c(=O)c(C(=O)O)cn([C@@H]3C[C@@H]3F)c12`, the minimal inhibitory concentration (MIC) is at most 0.003 µg/mL in [1]; at most 0.003 µg/mL in [5]; 0.003 µg/mL (≈ 0.00692 µM) in [6]; 0.003 µg/mL (≈ 0.00692 µM) in [7]; 0.39 µg/mL (≈ 0.9 µM) in [8]; at most 0.003 µg/mL in [10]. Further, the minimal inhibitory concentration (MIC) was 0.025 µg/mL (≈ 0.0577 µM) in [11], at most 0.003 µg/mL in data set [13] and 0.025 µg/mL (≈ 0.0577 µM) in data set [14]. The Activity entry in data set [16] is listed as “Toxic”. Further, the solubility in data set [19] worked out at 180 µg/mL (≈ 415 µM).
